Assay results as given in patent US10611777B2, “Imidazopyridazine compounds and their use” (HUTCHISON MEDIPHARMA LIMITED, priority 2014, dated 2020).
Values after ≈ are worked out from the molar mass of the structure shown.

Tests used:
PI3K-β (p110β/p85α) = PI3K-β (p110β/p85α) (Homo sapiens (Human), UniProt P42338); assay: Fluorescent determination of PI3K enzyme activity (Transcreener KINASE Assay), PI3K-β; format: biochemical; conditions: inhibition rate at 1 μM;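 further: Far-red fluorescence polarization immunoassay detecting ADP produced by the kinase, 80 min enzyme reaction at room temperature, inhibition relative to ADP formed in 2% DMSO control wells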
PI3K-β (p110β/p85α), sequence (P42338 whole entry, species assumed): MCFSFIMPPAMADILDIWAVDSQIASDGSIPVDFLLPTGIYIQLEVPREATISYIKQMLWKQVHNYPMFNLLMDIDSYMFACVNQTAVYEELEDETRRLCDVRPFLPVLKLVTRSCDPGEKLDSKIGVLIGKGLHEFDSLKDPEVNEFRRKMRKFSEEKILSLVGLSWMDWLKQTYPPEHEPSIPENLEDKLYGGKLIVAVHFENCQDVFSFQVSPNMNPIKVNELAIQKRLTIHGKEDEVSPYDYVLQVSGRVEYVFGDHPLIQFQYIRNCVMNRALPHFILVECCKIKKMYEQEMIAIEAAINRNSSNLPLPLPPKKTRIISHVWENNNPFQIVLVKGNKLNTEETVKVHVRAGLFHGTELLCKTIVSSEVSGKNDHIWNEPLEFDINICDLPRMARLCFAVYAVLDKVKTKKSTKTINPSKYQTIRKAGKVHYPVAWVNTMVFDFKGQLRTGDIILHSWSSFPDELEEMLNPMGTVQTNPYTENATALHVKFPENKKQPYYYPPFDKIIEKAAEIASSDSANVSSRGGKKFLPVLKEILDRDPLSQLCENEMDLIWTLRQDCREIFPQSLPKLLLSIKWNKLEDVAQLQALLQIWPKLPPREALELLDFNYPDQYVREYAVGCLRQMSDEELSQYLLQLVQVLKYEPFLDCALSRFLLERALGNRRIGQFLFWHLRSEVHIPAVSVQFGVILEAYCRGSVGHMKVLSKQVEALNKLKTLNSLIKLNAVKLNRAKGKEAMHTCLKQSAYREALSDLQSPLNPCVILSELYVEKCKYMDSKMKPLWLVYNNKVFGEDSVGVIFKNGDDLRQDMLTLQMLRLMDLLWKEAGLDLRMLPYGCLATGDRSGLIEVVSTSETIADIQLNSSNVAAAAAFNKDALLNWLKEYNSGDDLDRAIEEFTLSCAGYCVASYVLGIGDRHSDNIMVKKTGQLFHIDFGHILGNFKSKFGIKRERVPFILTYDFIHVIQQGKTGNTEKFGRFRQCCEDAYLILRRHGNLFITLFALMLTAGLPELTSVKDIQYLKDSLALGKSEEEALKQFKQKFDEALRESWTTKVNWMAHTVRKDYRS
PI3K-β (p110β/p85α), sequence (P27986 whole entry partner, species assumed): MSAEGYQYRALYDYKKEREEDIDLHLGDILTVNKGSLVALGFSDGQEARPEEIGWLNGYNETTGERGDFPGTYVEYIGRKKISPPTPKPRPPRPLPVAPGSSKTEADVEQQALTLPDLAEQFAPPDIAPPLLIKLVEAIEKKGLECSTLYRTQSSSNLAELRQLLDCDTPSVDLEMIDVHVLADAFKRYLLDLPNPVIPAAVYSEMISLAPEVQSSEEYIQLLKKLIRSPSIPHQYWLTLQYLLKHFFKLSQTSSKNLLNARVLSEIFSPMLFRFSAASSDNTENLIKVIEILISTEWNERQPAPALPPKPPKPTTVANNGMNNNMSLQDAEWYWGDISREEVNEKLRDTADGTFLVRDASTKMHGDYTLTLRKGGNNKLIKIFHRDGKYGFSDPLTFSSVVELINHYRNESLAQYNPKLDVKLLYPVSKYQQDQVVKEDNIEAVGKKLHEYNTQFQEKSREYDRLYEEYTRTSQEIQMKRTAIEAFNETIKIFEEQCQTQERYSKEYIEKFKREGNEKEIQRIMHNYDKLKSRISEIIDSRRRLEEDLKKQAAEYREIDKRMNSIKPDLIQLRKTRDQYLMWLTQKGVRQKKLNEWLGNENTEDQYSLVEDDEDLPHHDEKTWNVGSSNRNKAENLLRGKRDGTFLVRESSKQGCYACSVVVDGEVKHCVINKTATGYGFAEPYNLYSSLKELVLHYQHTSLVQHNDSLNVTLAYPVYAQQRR
Procedure: (§1) PI3K kinases including p110α/p85α and p110γ were purchased from Invitrogen, p110δ/p85α and p110β/p85α were from Millipore.
(§2) It is a universal, homogenous, high throughput screening (HTS) technology using a far-red, competitive fluorescence polarization immunoassay based on the defection of ADP to monitor the activity of enzymes that catalyze group transfer reactions. […] The reaction mixture was added into desired wells of a 96-well plate. The plate was sealed and incubated for 80 min at room temperature. • 2) Next, 25 uL ADP detection mix was added into each well. The plate was sealed again and incubated for 60 min at room temperature. Then fluorescence polarization was measured by Tecan Infinite F500 Reader.
(§3) Data was analyzed and IC50 values were generated using the add-in software for Microsoft Excel, Xlfit™ (version 5.3).

PI3K-α (p110α/p85α) = PI3K-α (p110α/p85α) (Homo sapiens (Human), UniProt P42336); assay: Fluorescent determination of PI3K enzyme activity (Transcreener KINASE Assay), PI3K-α; format: biochemical; conditions: inhibition rate at 1 μM
PI3K-α (p110α/p85α), sequence (P42336 whole entry, species assumed): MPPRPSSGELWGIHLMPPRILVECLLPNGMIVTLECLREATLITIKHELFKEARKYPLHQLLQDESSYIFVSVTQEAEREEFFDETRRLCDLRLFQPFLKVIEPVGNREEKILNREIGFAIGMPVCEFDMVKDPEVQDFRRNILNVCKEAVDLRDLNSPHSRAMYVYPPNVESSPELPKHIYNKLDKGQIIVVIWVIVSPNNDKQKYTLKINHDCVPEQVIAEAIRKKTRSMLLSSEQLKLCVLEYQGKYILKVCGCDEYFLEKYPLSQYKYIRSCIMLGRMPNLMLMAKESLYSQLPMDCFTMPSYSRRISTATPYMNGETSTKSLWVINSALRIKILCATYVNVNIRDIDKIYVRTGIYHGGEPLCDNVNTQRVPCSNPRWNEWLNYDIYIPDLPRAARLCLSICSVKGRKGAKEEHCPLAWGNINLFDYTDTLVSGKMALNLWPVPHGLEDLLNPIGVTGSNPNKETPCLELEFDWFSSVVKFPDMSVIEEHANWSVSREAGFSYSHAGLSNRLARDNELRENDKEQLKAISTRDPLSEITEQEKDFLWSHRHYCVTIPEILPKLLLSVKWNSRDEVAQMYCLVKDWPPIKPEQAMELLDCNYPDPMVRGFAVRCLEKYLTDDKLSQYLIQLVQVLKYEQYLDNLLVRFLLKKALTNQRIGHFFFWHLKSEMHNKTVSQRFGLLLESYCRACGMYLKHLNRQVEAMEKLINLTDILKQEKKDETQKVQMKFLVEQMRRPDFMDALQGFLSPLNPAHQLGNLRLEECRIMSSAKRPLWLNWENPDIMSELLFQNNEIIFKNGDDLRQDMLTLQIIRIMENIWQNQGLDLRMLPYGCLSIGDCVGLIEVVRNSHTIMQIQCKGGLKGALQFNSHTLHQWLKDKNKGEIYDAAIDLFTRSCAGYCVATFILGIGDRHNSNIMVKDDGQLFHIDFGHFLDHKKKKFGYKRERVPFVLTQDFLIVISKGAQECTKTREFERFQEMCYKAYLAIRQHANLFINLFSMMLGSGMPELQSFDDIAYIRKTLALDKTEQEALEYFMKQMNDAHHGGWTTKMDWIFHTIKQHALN
PI3K-α (p110α/p85α), sequence (P27986 whole entry partner, species assumed): as the sequence (P27986 whole entry partner, species assumed) above
Procedure: Inhibition rates were calculated as follow: IH %=(ADP amount under 2% DMSO well−ADP amount under test compound well)/ADP amount under 2% DMSO well×100%.

PI3K-γ (p110γ) = PI3K-γ (p110γ) (Homo sapiens (Human), UniProt P48736); assay: Fluorescent determination of PI3K enzyme activity (Transcreener KINASE Assay), PI3K-γ; format: biochemical; conditions: inhibition rate at 1 μM;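 further: p110γ enzyme reaction for 80 min at room temperature, ADP formed measured by far-red competitive fluorescence polarization immunoassay, inhibition relative to wells with 2% DMSO only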
PI3K-γ (p110γ), sequence (P48736 whole entry, species assumed): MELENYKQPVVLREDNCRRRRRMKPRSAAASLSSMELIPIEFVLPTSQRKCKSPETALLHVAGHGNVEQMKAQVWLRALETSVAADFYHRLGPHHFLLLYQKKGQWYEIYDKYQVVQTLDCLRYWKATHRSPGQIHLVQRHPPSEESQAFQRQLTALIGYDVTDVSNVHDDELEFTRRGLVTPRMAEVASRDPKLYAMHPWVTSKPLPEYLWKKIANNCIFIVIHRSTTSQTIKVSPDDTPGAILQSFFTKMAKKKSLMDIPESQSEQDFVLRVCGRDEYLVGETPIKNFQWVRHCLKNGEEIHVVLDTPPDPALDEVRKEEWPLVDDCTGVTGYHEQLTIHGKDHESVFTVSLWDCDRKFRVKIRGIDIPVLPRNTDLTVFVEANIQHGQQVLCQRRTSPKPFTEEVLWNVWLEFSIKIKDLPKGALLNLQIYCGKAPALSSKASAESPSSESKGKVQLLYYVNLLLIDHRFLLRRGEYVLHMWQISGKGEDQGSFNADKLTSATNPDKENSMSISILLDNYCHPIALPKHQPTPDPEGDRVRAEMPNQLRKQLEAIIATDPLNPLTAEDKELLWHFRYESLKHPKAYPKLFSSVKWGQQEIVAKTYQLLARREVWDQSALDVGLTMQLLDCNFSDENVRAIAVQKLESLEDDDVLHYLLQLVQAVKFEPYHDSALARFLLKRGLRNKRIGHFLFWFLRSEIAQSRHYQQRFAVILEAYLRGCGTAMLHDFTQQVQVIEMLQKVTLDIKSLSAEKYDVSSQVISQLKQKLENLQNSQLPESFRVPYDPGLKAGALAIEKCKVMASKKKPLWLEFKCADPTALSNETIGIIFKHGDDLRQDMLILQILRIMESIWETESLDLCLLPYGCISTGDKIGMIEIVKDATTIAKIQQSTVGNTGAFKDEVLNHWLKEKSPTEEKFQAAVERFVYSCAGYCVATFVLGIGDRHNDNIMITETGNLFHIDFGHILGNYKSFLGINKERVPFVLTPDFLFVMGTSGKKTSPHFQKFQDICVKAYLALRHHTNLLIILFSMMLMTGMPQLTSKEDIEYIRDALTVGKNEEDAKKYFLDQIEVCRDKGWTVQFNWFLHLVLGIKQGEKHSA
Procedure: as §1, §2, §3

PI3K-δ (p110δ/p85α) = PI3K-δ (p110δ/p85α) (Homo sapiens (Human), UniProt O00329); assay: Fluorescent determination of PI3K enzyme activity (Transcreener KINASE Assay), PI3K-δ; format: biochemical; conditions: for PI3K-δ IH%: inhibition rate at 1 μM
PI3K-δ (p110δ/p85α), sequence (O00329 whole entry, species assumed): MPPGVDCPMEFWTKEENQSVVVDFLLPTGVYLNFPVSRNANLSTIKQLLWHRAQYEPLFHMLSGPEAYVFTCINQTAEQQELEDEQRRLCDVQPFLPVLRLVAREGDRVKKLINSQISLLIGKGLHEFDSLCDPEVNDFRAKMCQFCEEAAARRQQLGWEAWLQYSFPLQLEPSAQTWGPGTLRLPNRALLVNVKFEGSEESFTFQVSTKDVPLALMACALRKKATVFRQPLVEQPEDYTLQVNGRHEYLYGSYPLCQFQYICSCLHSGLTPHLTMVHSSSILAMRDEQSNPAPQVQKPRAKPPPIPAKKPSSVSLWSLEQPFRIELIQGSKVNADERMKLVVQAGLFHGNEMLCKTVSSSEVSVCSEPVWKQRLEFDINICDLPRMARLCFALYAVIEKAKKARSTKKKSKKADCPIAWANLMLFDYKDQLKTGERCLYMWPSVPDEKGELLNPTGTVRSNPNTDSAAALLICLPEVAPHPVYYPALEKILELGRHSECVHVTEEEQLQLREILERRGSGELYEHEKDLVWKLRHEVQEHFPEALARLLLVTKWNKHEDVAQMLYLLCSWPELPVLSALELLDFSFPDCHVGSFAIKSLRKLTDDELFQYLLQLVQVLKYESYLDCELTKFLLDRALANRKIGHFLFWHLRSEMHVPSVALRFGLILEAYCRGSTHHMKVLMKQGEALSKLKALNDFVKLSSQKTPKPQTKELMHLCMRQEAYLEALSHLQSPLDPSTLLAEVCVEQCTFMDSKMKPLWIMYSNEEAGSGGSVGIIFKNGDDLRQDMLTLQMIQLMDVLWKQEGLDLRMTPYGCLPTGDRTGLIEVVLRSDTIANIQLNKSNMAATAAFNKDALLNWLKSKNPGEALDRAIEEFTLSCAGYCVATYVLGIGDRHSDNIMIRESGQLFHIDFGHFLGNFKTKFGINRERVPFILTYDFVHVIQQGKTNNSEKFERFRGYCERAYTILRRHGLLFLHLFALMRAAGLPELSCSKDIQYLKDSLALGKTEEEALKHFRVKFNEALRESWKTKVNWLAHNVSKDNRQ
PI3K-δ (p110δ/p85α), sequence (P27986 whole entry partner, species assumed): as the sequence (P27986 whole entry partner, species assumed) above
Procedure: as §1, §2, §3

[1] = system: PI3Kδ signaling in basophils from human whole blood; assay: Inhibition of PI3Kδ signaling in basophils from human whole blood; format: cell-based; conditions: anti-IgE stimulated, CD63
Procedure: • 1) Heparinized human whole blood was mixed and pipetted into the 96 well v-bottom plate, 100 μL per well. • 2) 10 μL of stimulation buffer (1 mg/mL stock, final concentration of Recombinant human IL-3; 20 ng/mL) was added to the whole blood samples of each well and vortex gently. The samples were incubated for 20 min at 37° C. • 3) 10 uL/well of test compound dilution (final concentrations of the test compound in well: 1 uM, 0.3 uM, 0.1 uM, 0.037 uM, 0.012 uM, 0.0041 uM, 0.0014 uM and 0.0005 uM) or vehicle (0.2% DMSO) was added into each well of the plate and the plate was incubated for 1.5 h at 37° C. • 4) 100 μL of the Goat anti-human IgE (1 mg/mL stock, final concentration of IgE: 0.31 ug/mL) working solution was added into each well of the plate. Vortex all the wells once more and incubate for 20 min at 37° C. • 5) Labeling with staining antibody: Degranulation was stopped by incubating the samples on ice for 5 min. 6 μL of staining antibody mixture (anti-CD63-FITC and anti-IgE-PE) was added into each well. […] The plate was incubated in a covered ice bath until analysis. • 10) Flow cytometric analysis: Cells were analyzed by flow cytometry using the blue-green excitation light (488 nm argon-ion laser, FACSCalibur, CELLQuest software).
as §3

[2] = system: AKT phosphorylation (p-AKT Ser473) in Ramos cells; assay: Inhibition of AKT phosphorylation in Ramos cell line; format: cell-based; conditions: anti-IgM stimulated
Procedure: 6×10^4/mL Ramos cells (ATCC, CRL-1596; cells were cultured in RPMI1640 media with 10% FBS) were seeded into a 96-well plate (Bookman Dickinson, No. 356692) at 80 uL/well, 4,800 cells/well. After incubations for 3 hr at 37° C. under 5% CO2, Ramos cells were treated with 10 uL/well various concentrations of test compound (final concentrations of the test compound: 1 uM, 0.3 uM, 0.1 uM, 0.037 uM, 0.012 uM, 0.0041 uM, 0.0014 uM and 0.0005 uM) or 0.3% DMSO for 30 min, and then were stimulated with 10 uL/well 1 ug/ml Anti-IgM (Jackson Immunoresearch, 709-006-073) for 15-20 min. • 1) Cells were fixed with 100 μL of 4% pre-warmed Paraformaldehyde (2% final concentration), and incubated for 45 min at room temperature. • 2) The paraformaldehyde solution was removed. 100 μL of ice-cold methanol was added into each well and the plate was left at 4° C. for 30 min. • 3) The cells were washed for three times with 160 μPBS. • 4) 40 μL 1:350 dilution of Rabbit anti-p-AKT(Ser^473) antibody (Cell Signaling Technology, 4060 L) in antibody dilution buffer (1% BSA, in PBS) were added into each well. […]
as §3

[3] = system: anti-IgD induced B cell activation; assay: Anti-IgD antibody induced B cells activation in rat whole blood (ex vivo after oral dosing)
Procedure: Activation of B cells (B220+) in rat whole blood with anti-IgD antibody leading to activation via Ig receptors is known to involve PI3K pathways and sensitive to modulation by PI3Kδ inhibitors. A pharmacodynamics assay was developed to assess activity of PI3Kδ inhibitors ex vivo following oral administration of inhibitors to rats.
Wistar rats (female, 6-8 weeks old) were used in the experiments. The dose dependency, time course study and PKPD relationship of compound 4 were conducted in normal Wistar rats. […] The control group (6 rats) was treated with the vehicle alone. […] The heparin anti-coagulated blood was mixed with anti-rat-IgD, then was incubated at 37° C. under 5% CO2 overnight. Fluorescence signal for CD86 on B220 (B cells) positive cells was detected using a flow cytometer (BD FACSCalibur, BD Biosciences) and data were analyzed by CellQuest software. Plasma was collected to measure compound 4 levels.

[4] = system: Wistar rats with established type II collagen-induced arthritis; assay: Rat collagen II induced arthritis (CIA) model; format: in vivo
Procedure: Rat collagen induced arthritis is an experimental model of polyarthritis that has been widely used for nonclinical testing of numerous anti-arthritic agents that are either under nonclinical or clinical investigation or are currently used as therapeutics in this disease.
Wistar rats were immunized intradermally with 200 μg bovine collagen II emulsified in Freund's incomplete adjuvant (IFA, Sigma, US) on day 0 and day 7. The hind paw volumes were measured before and after the immunization. […] The naive group was not administered. YiSaiPu (10 mg/kg), a human tumor necrosis factor receptor p75 Fc fusion protein, was administered with intraperitoneal injection on days 10, 12 and 14 as a positive control. The study was terminated on day 18.

SU-DHL-6 cell line = assay: In vitro cell proliferation assay in SU-DHL-6 cell line; format: cell-based; conditions: SU-DHL-6, 72 h, CCK-8
Procedure: Growth inhibition assays were carried out using 10% FBS supplemented media. Cells were seeded at a concentration of 15000 cells/well in a 96-well plate. Test compound dilution at different concentrations (final concentrations of the test compound: 1 uM, 0.3 uM, 0.1 uM, 0.037 uM, 0.012 uM, 0.0041 uM, 0.0014 uM and 0.0005 uM) were added after 24 hours. Growth was assessed using Cell Counting Kit-8 (CCK-8) (Dojindo, Cat # CK04) after the test compound were incubated for 72 h. Absorbance was read at the wave length 450 nm on Multiskan MK3 machine (Thermo).
as §3

SMILES | PI3K-β IH% (PI3K-β (p110β/p85α)) [%] | PI3K-γ IH% (PI3K-γ (p110γ)) [%] | PI3K-δ IH% (PI3K-δ (p110δ/p85α)) [%] | further results
C[C@H](Nc1ncnc(N)c1C#N)c1cc2ncc(F)n2nc1-c1ccccc1 [Compound 78, (S)-4-amino-6-((1-(3-fluoro-6-phenylimidazo[1,2-b]pyridazin-7-yl)ethyl)amino)pyrimidine-5-carbonitrile] | 50.1 | – | – | IC50 [1]: 10 nM; IC50 (PI3K-δ (p110δ/p85α)): 1 nM; IC50 ([2]; Homo sapiens): 7 nM
C[C@H](Nc1nc(N)ncc1C#N)c1cc2ncc(Cl)n2nc1-c1ccccc1 [Compound 34] | 3.7 | −19.3 | 8.3 | –
C[C@@H](Nc1ncnc(N)c1C#N)c1cc2ncc(Cl)n2nc1-c1ccccn1 [Compound 7, (R)-4-amino-6-((1-(3-chloro-6-(pyridin-2-yl)imidazo[1,2-b]pyridazin-7-yl)ethyl)amino)pyrimidine-5-carbonitrile] | −2.7 | 61.1 | 12.5 | –
COc1cc(-c2c(N)ncnc2N[C@@H](C)c2cc3ncc(Cl)n3nc2-c2ccccc2)ccn1 [Compound 50] | −14.1 | 5.5 | 68.9 | –
C[C@H](Nc1ncnc(N)c1-c1nn[nH]n1)c1cc2ncc(Cl)n2nc1-c1ccccc1 [Compound 21] | – | – | – | PI3K-α IH% (PI3K-α (p110α/p85α)): 21.7%
C[C@H](Nc1ncnc(N)c1C#N)c1cc2ncc(Cl)n2nc1-c1ccccc1 [Compound 4, (S)-4-amino-6-((1-(3-chloro-6-phenylimidazo[1,2-b]pyridazin-7-yl)ethyl)amino)pyrimidine-5-carbonitrile] | – | – | – | EC50 ([3]; Rattus norvegicus, B-cell, po, at 2 hr post-dose, read-out: EC50 (corresponding plasma concentration)): 1.49 ng/mL (≈ 3.8 nM); anti-IgD induced B cell activation in rat whole blood, ex vivo ([3]; oral, dose range 0.01 to 3 mg/kg, p<0.01): inhibited anti-IgD induced B cell activation in rat whole blood, ex vivo, in a dose- and time-dependent manner; mean paw volume at the end of the treatment period compared to vehicle-treated diseased animals ([4]; PO QD days 10-16, p<0.01, all doses except lowest dose 0.03 mg/kg): significantly decreased; effects on the parameters associated with established type II collagen-induced arthritis ([4]; daily oral treatment): dose-dependent beneficial effects
Cc1cnc2cc([C@H](C)Nc3ncnc4[nH]cnc34)c(-c3ccccc3)nn12 [Compound 23] | 28.7 | – | – | IC50 (SU-DHL-6 cell line): 78 nM; PI3K-α IH% (PI3K-α (p110α/p85α)): 3.2%; IC50 [2]: 12 nM

Second part, led by results:

PI3K-β IH% (PI3K-β (p110β/p85α)) [%] | PI3K-γ IH% (PI3K-γ (p110γ)) [%] | PI3K-δ IH% (PI3K-δ (p110δ/p85α)) [%] | SMILES | further results
76.7 | – | – | Cc1cnc2cc([C@H](C)Nc3ncnc(N)c3C#N)c(-c3ccccc3)nn12 [Compound 22] | PI3K-α IH% (PI3K-α (p110α/p85α)): 13.6%
3.2 | 22.5 | 51.0 | CCC(Nc1ncnc2[nH]cnc12)c1cc2ncc(Cl)n2nc1-c1ccccc1 (stereo not drawn) [Compound 14] | –
8.5 | −4.7 | 60.3 | C[C@H](Nc1nc(O)nc(N)c1C#N)c1cc2ncc(Cl)n2nc1-c1ccccc1 [Compound 55, (S)-4-amino-6-((1-(3-chloro-6-phenylimidazo[1,2-b]pyridazin-7-yl)ethyl)amino)-2-hydroxypyrimidine-5-carbonitrile] | –
11.1 | 18.8 | 39.8 | CCC(Nc1ncnc(N)c1C#N)c1cc2ncc(Cl)n2nc1-c1ccccn1 (stereo not drawn) [Compound 28] | –
9.0 | 1.0 | 21.0 | C[C@H](Nc1ncnc(N)c1C(=O)N(C)C)c1cc2ncc(Cl)n2nc1-c1ccccc1 [Compound 56] | –
